± gives the uncertainty stated by the source.
Assay: TIMS collision cross section in N2 (TIMS CCS N2); higher = larger gas-phase ion size
Conditions: drift gas: N2 (99.4% N2, 0.6% O2), calibration: Stow et al. 2017 values for Agilent ESI-L Low Concentration Tune Mix, ionization: negative ESI
Protocol: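 Authentic plant natural product standards (10-50 ppm in 80% methanol) were analysed by UHPLC (BEH C18, 60 °C) coupled to a Bruker timsTOF Pro in negative ESI with N2 drift gas. TIMS collision cross sections were computed from mobility peak apices after calibration with Agilent Tune Mix using Stow et al. reference values. Values are the average of triplicate runs on different days, reported per annotated ion species (deprotonated ion, adducts, dimer, oxidized ion).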

SMILES | TIMS collision cross section in N2 (ion species: [M-H]-) | other results
O=c1cc(-c2ccc(O)c(O)c2)oc2cc(O)cc(O)c12 [Luteolin] | 160.69 ± 0.18 Å² | TIMS collision cross section in N2 (ion species: [2M-H]-): 234.87 ± 0.19 Å²
C[C@H]1[C@H](C)CC[C@]2(C(=O)O)CC[C@]3(C)C(=CC[C@@H]4[C@@]5(C)C[C@@H](O)[C@H](O)[C@@](C)(CO)[C@@H]5[C@H](O)C[C@]43C)[C@H]12 [Madecassic acid] | 223.91 ± 0.25 Å² | –
CCCCCCCCCCCCCC(=O)O [Myristic acid] | 162.69 ± 0.1 Å² | –
O=C1C[C@@H](c2ccc(O)cc2)Oc2cc(O)cc(O)c21 [Naringenin] | 163.01 ± 0.16 Å² | –
C[C@@H]1O[C@@H](O[C@H]2[C@H](Oc3cc(O)c4c(c3)O[C@H](c3ccc(O)cc3)CC4=O)O[C@H](CO)[C@@H](O)[C@@H]2O)[C@H](O)[C@H](O)[C@H]1O [Naringin] | 215.92 ± 0.17 Å² | TIMS collision cross section in N2 (ion species: [M-H+Na+HCO2H]-): 220.79 ± 0.26 Å²
COc1ccc([C@@H]2CC(=O)c3c(O)cc(O[C@@H]4O[C@H](CO)[C@@H](O)[C@H](O)[C@H]4O[C@@H]4O[C@@H](C)[C@H](O)[C@@H](O)[C@H]4O)cc3O2)cc1O [Neohesperidin] | 226.82 ± 0.1 Å² | –
COc1ccc(-c2coc3cc(O[C@@H]4O[C@H](CO)[C@@H](O)[C@H](O)[C@H]4O)ccc3c2=O)cc1 [Ononin (Formononetin 7-O-glucoside)] | – | TIMS collision cross section in N2 (ion species: [M-H+HCO2H]-): 223.35 ± 0.14 Å²
CCCCCCCCCCCCCCCC(=O)O [Palmitic acid] | 170.37 ± 0.16 Å² | –
CCCCCCCCCCCCCCC(=O)O [Pentadecanoic acid] | 166.43 ± 0.15 Å² | –
COc1ccc(-c2cc(=O)c3ccc(O)cc3o2)cc1 [Pratol] | – | TIMS collision cross section in N2 (ion species: [2M-H]-): 234 ± 0.056 Å²
COc1cc(O)c2c(=O)c(-c3ccc(O)cc3)coc2c1 [Prunetin] | 167.78 ± 0.0071 Å² | TIMS collision cross section in N2 (ion species: [2M-H]-): 264.09 ± 0.09 Å²
C[C@H]1[C@H](C)CC[C@]2(C(=O)O)CC[C@]3(C)C(=CC[C@@H]4[C@@]5(C)C[C@@H](O)[C@@H](O)C(C)(C)[C@@H]5CC[C@]43C)[C@H]12 [Pygenic acid A] | 220.9 ± 0.38 Å² | –
C[C@H]1[C@H](C)CC[C@]2(C(=O)O)CC[C@]3(C)C(=CC[C@@H]4[C@@]5(C)C[C@@H](O)[C@@H](O)[C@](C)(CO)[C@@H]5CC[C@]43C)[C@H]12 [Pygenic acid B] | 225.46 ± 0.32 Å² | –
C[C@@H]1O[C@@H](Oc2c(-c3ccc(O)c(O)c3)oc3cc(O)cc(O)c3c2=O)[C@H](O)[C@H](O)[C@H]1O [Quercitrin] | 195.84 ± 0.038 Å² | TIMS collision cross section in N2 (ion species: [M-H+Na+HCO2H]-): 205.52 ± 0.42 Å²
Oc1ccc(/C=C/c2cc(O)cc(O)c2)cc1 [Resveratrol] | 157.41 ± 0.0058 Å² | –
C[C@@H]1O[C@@H](O[C@H]2[C@H](Oc3cc(O)c4c(=O)cc(-c5ccc(O)cc5)oc4c3)O[C@H](CO)[C@@H](O)[C@@H]2O)[C@H](O)[C@H](O)[C@H]1O [Rhoifolin] | 225.59 ± 0.085 Å² | TIMS collision cross section in N2 (ion species: [M-H+Na+HCO2H]-): 229.74 ± 2.3 Å²
C[C@@H]1O[C@@H](OC[C@H]2O[C@@H](Oc3c(-c4ccc(O)c(O)c4)oc4cc(O)cc(O)c4c3=O)[C@H](O)[C@@H](O)[C@@H]2O)[C@H](O)[C@H](O)[C@H]1O [Rutin] | 231.06 ± 0.2 Å² | TIMS collision cross section in N2 (ion species: [M-3H]-): 219.55 ± 0.41 Å²
O=C(N[C@@H](CSCc1ccccc1)C(=O)O)OCc1ccccc1 [S-Benzyl-N-carbobenzyloxy-L-cysteine] | 264.84 ± 0.64 Å² | –
O=C(O)[C@H]1O[C@@H](Oc2cc3oc(-c4ccc(O)cc4)cc(=O)c3c(O)c2O)[C@H](O)[C@@H](O)[C@@H]1O [Scutellarein-7-glucuronide] | – | TIMS collision cross section in N2 (ion species: [M-3H]-): 202.76 ± 0.54 Å²
O=c1cc(-c2ccc(O)cc2)oc2cc(O)c(O)c(O)c12 [Scutellarein] | 159.52 ± 0.35 Å² | TIMS collision cross section in N2 (ion species: [M-3H]-): 156.37 ± 0.57 Å²
COc1cc(C=CC(=O)O)cc(OC)c1O [Sinapic acid] | 148.27 ± 0.07 Å² | –
COc1cc2oc(-c3ccc(O)cc3)cc(=O)c2c(O)c1O [Sorbifolin] | 166.28 ± 0.23 Å² | –

SMILES | TIMS collision cross section in N2 (ion species: [M-H]-) | other results
CCCCCCCCCCCCCCCCCC(=O)O [Stearic acid] | 178.54 ± 0.015 Å² | –
O=C(/C=C/c1ccc(O)cc1)OC[C@H]1O[C@@H](Oc2c(-c3ccc(O)cc3)oc3cc(O)cc(O)c3c2=O)[C@H](O)[C@@H](O)[C@@H]1O [Tiliroside] | 217.09 ± 0.061 Å² | –
C[C@H]1[C@H](C)CC[C@]2(C(=O)O)CC[C@]3(C)C(=CC[C@@H]4[C@@]5(C)CC[C@H](O)C(C)(C)[C@@H]5CC[C@]43C)[C@H]12 [Ursolic acid] | 218.03 ± 0.74 Å² | TIMS collision cross section in N2 (ion species: [M-H+Na+HCO2H]-): 229.46 ± 0.98 Å²
O=c1cc(-c2ccc(O)cc2)oc2cc(O[C@@H]3O[C@H](CO)[C@@H](O)[C@H](O)[C@H]3O[C@@H]3OC[C@](O)(CO)[C@H]3O)cc(O)c12 [apiin] | 223.96 ± 0.26 Å² | –
CC1(C)CC[C@]2(C(=O)O)CC[C@]3(C)C(=CC[C@@H]4[C@@]5(C)C[C@H](O)[C@H](O)[C@@](C)(CO)[C@@H]5CC[C@]43C)[C@@H]2C1 [bayogenin] | 225.09 ± 0.24 Å² | TIMS collision cross section in N2 (ion species: [M-H+HCO2H]-): 234.73 ± 0.27 Å²
C[C@@H]1O[C@@H](O[C@H]2[C@H](Oc3cc(O)c4c(c3)O[C@H](c3ccc(O)c(O)c3)CC4=O)O[C@H](CO)[C@@H](O)[C@@H]2O)[C@H](O)[C@H](O)[C@H]1O [eriodictyol-7-neohesperidoside] | 222.66 ± 0.095 Å² | TIMS collision cross section in N2 (ion species: [M-3H]-): 222.52 ± 0.16 Å²; TIMS collision cross section in N2 (ion species: [M-H+Na+HCO2H]-): 234.56 ± 0.42 Å²
O=c1c(O)c(-c2ccccc2)oc2cc(O)cc(O)c12 [galangin] | 156.93 ± 0.11 Å² | TIMS collision cross section in N2 (ion species: [2M-H]-): 238 ± 0.12 Å²
CC(C)=CCc1c(O)ccc2c1O[C@H](c1ccc(O)cc1)CC2=O [isobavachin] | 185.17 ± 0.47 Å² | TIMS collision cross section in N2 (ion species: [2M-H]-): 237.66 ± 0.46 Å²
O=c1c(O[C@@H]2O[C@H](CO)[C@@H](O)[C@H](O)[C@H]2O)c(-c2ccc(O)cc2)oc2cc(O)cc(O)c12 [kaempferol-3-O-glucoside] | 200.44 ± 0.33 Å² | TIMS collision cross section in N2 (ion species: [2M-H]-): 279.93 ± 1.2 Å²; TIMS collision cross section in N2 (ion species: [M-H+Na+HCO2H]-): 222.09 ± 0.65 Å²
O=c1c(O)c(-c2ccc(O)cc2)oc2cc(OC3OC(CO)C(O)C(O)C3O)cc(O)c12 (configuration not stated) [kaempferol-7-O-glucoside] | 209.17 ± 0.14 Å² | TIMS collision cross section in N2 (ion species: [2M-H]-): 283.76 ± 0.75 Å²; TIMS collision cross section in N2 (ion species: [M-H+Na+HCO2H]-): 230.04 ± 0.3 Å²
CC1(C)CC[C@]2(C(=O)O)CC[C@]3(C)C(=CC[C@@H]4[C@@]5(C)C[C@H](O)[C@H](O)[C@@](C)(C(=O)O)[C@@H]5CC[C@]43C)[C@@H]2C1 [medicagenic acid] | 226.23 ± 0.27 Å² | TIMS collision cross section in N2 (ion species: [M-H+Na+HCO2H]-): 243.47 ± 0.081 Å²
CCCCCCCCCCO[C@@H]1O[C@H](CO)[C@@H](O)[C@H](O)[C@H]1O [n-Decyl-beta-D-glucopyranoside] | 189.39 ± 0.39 Å² | TIMS collision cross section in N2 (ion species: [2M-H]-): 277.92 ± 0.32 Å²; TIMS collision cross section in N2 (ion species: [M-H+HCO2H]-): 198.21 ± 0.31 Å²
CCCCCCCCO[C@@H]1O[C@H](CO)[C@@H](O)[C@H](O)[C@H]1O [n-Octyl-beta-D-glucopyranoside] | 181.3 ± 0.15 Å² | TIMS collision cross section in N2 (ion species: [2M-H]-): 272.83 ± 0.74 Å²; TIMS collision cross section in N2 (ion species: [M-H+HCO2H]-): 190.02 ± 0.2 Å²
CCCCCCCCCCCCC(=O)O [n-Tridecanoic acid] | 159.43 ± 0.061 Å² | –
COc1ccc(CCC(=O)c2c(O)cc(O[C@@H]3O[C@H](CO)[C@@H](O)[C@H](O)[C@H]3O[C@@H]3O[C@@H](C)[C@H](O)[C@@H](O)[C@H]3O)cc2O)cc1O [neohesperidin dihydrochalcone] | 232.21 ± 0.35 Å² | –
COc1ccc(-c2cc(=O)c3c(O)c(OC)c(O)c(OC)c3o2)cc1 [nevadensin] | 182.82 ± 0.12 Å² | TIMS collision cross section in N2 (ion species: [M-H+Na+HCO2H]-): 199.45 ± 0.091 Å²
COc1cc(O)c2c(c1)O[C@H](c1ccc(O)cc1)CC2=O [sakuranetin] | 168.54 ± 0.27 Å² | –
COc1cc(-c2cc(=O)c3c(O)c(OC)c(O)c(OC)c3o2)cc(O)c1OC [scaposin] | 193.54 ± 0.18 Å² | TIMS collision cross section in N2 (ion species: [M-H+Na+HCO2H]-): 209.41 ± 0.26 Å²
O=C(O)[C@H]1O[C@@H](Oc2cc3oc(-c4ccc(O)cc4)cc(=O)c3c(O)c2O)[C@H](O)[C@@H](O)[C@@H]1O [scutellarin (Scutellarein-7-glucuronide)] | – | TIMS collision cross section in N2 (ion species: [M-3H]-): 206.59 ± 0.074 Å²
COc1cc([C@@H]2Oc3c(O)cc([C@H]4Oc5cc(O)cc(O)c5C(=O)[C@@H]4O)cc3[C@H]2CO)ccc1O [silychristin] | 201.63 ± 0.24 Å² | –
CC1(C)C[C@H]2C3=CC[C@@H]4[C@@]5(C)CC[C@H](O)[C@](C)(CO)[C@@H]5CC[C@@]4(C)[C@]3(C)CC[C@@]2(C)[C@H](O)[C@@H]1O [soyasapogenol A] | – | TIMS collision cross section in N2 (ion species: [M-H+HCO2H]-): 224.66 ± 0.27 Å²

Source: the supplement of paper PMC7023306
